The values below come from PMC5812454 (Nanomedicine : nanotechnology, biology, and medicine, 2016).

Data set [1] concerns the target T1, Recombinant human HER2 (Thr 23 – Thr 652) fused to IgG1 Fc Tag (Homo sapiens, UniProt P04626). The data set can be described thus: SPR. (In general: SPR reads the build-up and loss of mass on a sensor chip optically.)
In data set [2] the test system is HER2-positive breast cancer. The note with it: cited from earlier work.
The conditions of data set [3]: ref [8]; cited from earlier work.
Data set [4] addresses T1, Recombinant human HER2 (Thr 23 – Thr 652) fused to IgG1 Fc Tag. The data set can be described thus: SPR binding to immobilized HER2.

What is called Kd is the equilibrium constant for the complex coming apart. The koff is the rate constant with which the complex falls apart. Broadly, the kon is the rate constant with which the complex forms.

Where a SMILES comes first, the peptide text is derived from it. Bridges are numbered along the chain shown (N, C = ends). {NH2} = amine

starPEG(PEG200-AHNP)2: in data set [1], the Kd turned out to be 4.6 µM, the koff was 0.00054 s⁻¹ and the kon came out at 118 M⁻¹ s⁻¹.
For “AHNP, anti-HER2/neu peptide, 12 amino acid exocyclic mimetic peptide (analogue 3)”, the koff in data set [1] was 0.00042 s⁻¹.
As for “AON: HER2-mRNA annealing Morpholino AON 5′-CATGGTGCTCACTGCGGCTCCGGC-NH2-3′ (all phosphorodiamidate morpholino (PMO), 3' {NH2})”, the tumor growth inhibition in data set [2] (AON in the absence of HER2 targeting, 2.5 mg/kg, ref [4]) is listed as 30–40%.
Regarding `CSCC[C@H](NC(=O)[C@H](Cc1ccc(O)cc1)NC(=O)[C@@H]1CSSC[C@H](NC(=O)[C@@H](N)Cc2ccc(O)cc2)C(=O)N[C@@H](CC(=O)O)C(=O)NCC(=O)N[C@@H](Cc2ccccc2)C(=O)N[C@@H](Cc2ccc(O)cc2)C(=O)N[C@@H](C)C(=O)N1)C(=O)N[C@@H](CC(=O)O)C(=O)N[C@H](C(N)=O)C(C)C` [AHNP] (H-YCDGFYACYMDV-NH2; disulfide 2-8), in data set [2] (free AHNP, dose of 4 mg/kg, ref [12]), the “tumor growth inhibition (in words)” value was “only a modest degree of inhibition”. Moreover, the “water solubility (in words)” value in data set [3] was “poorly water soluble”. Further, in data set [4], the Kd turned out to be 0.52 µM. The koff in data set [4] (pH 9.5) was 0.00042 s⁻¹.
